Test results as given in patent publication US9085550B2, “Ligands for estrogen related receptors and methods for synthesis of said ligands” (CITY OF HOPE, priority 2005, dated 2015).

Columns and labels:
[1] = test system: estrogen receptor responsive reporter construct; assay: Estrogen receptor responsive reporter in CV-1 cells without receptor (control of Table 1); format: cell-based; conditions: Table 1 second block
Experimental: (§1) Human ERα and ERβ were examined as full-length proteins using an estrogen receptor responsive reporter construct.
(§2) Suitable reporter gene constructs are well known to skilled workers in the fields of biochemistry and molecular biology. […] Other vectors known in the art can be used in the methods of the present invention.
(§3) CV-1 cells for the activation assays were grown in Dulbecco's modified Eagle's medium supplemented with 10% resin charcoal-stripped fetal bovine serum, 50 U/ml penicillin G and 50 μg/ml streptomycin sulfate (DMEM-FBS) at 37° C. in 5% CO2. One day prior to transfection, cells were plated to 50-80% confluence using phenol red free DMEM-FBS.

human ERα = target: T1, human ERα (Homo sapiens, UniProt P03372); assay: ERE-TK-luc reporter transactivation assay in CV-1 cells, full-length hERa; format: cell-based; conditions: for Fold Activation, ERE-TK-luc, hERa: Table 7, CV-1, drug conc 30 μM; for Activation of ERa: specificity for ERRs
T1 construct: Human ERα and ERβ were examined as full-length proteins using an estrogen receptor responsive reporter construct; expressed in transfected cells; host or cells: CV-1
T1 sequence (P03372 1-595): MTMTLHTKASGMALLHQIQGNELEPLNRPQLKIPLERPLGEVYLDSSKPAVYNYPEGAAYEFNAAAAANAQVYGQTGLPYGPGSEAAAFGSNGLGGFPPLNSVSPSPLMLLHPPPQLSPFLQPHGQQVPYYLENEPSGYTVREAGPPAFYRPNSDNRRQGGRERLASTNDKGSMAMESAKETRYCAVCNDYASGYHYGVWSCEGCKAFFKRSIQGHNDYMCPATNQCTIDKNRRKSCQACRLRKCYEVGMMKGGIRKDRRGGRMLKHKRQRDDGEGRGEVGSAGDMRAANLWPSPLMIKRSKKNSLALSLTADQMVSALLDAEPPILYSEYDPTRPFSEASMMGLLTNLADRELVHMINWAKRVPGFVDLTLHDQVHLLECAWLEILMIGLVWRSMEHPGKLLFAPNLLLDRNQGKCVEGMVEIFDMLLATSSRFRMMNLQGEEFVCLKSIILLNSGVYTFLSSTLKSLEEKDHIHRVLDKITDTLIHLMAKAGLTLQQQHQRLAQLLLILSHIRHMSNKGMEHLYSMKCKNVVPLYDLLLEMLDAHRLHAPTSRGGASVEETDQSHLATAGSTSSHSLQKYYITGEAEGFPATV
Experimental: as §1, §2, §3

ERR = assay: GAL4-ERR reporter assay in CV-1 cells, potency with versus without PGC-1a; format: cell-based; conditions: activated ERR at lower doses in the presence of PGC-1a
Experimental: Additional compounds were tested for their effects on ERR activation (Tables 3-6). DY159, DY162, DY163 and DY164 as well as DY131 can activate all three ERRs (ERRα/β/γ) in the presence of PGC-1a. […] Therefore, these compounds have two novel features yet to be reported: a) they are selective ERR modulators or coactivator-selective ligands, i.e., they activate ERR better in the presence of PGC-1a then the other coactivators that are normally present in CV-1 cells; and b) these are the first synthetic compounds reported to ACTIVATE ERRα. Previously reported compounds repress the constitutive activity of ERRα (see Willy et al., supra).
Referring to Tables 1-6, cell based transactivation assays were performed in CV-1 cells as described. See Wang, H., Chen, J., Hollister, K., Sowers, L. C., Forman, B. M., Endogenous bile acids are ligands for the nuclear receptor FXR/BAR, Mol Cell 1999, 3, 543-553. ERR activity was assayed with a GAL4 reporter construct and fusion proteins containing the ligand binding domains of human ERRα, human ERR β and mouse ERRγ linked to the DNA binding domain of yeast GAL4. Human ERα and ERβ were examined as full-length proteins using an estrogen receptor responsive reporter construct.
To test the effect of the compounds on ERR and ER, CV-1 cells were transiently transfected with expression vectors for the receptors along with appropriate reporter constructs according to methods known in the art. The receptors to be tested were expressed in CV-1 cells. Suitable reporter gene constructs are well known to skilled workers in the fields of biochemistry and molecular biology. All transfections additionally contained an expression vector with a cytomegalovirus promoter (pCMV-β-gal) as an internal control. Suitable constructs for use in these studies may conveniently be cloned into a cytomegalovirus expression vector (pCMV). For example, pCMV-β-gal contains the E. coli β-galactosidase gene expressed under control of the cytomegalovirus promoter/enhancer. Other vectors known in the art can be used in the methods of the present invention. […]

Activity on ERα (activate or inhibit) (human ERα; CV-1 reporter assay)	Fold Activation, ERE-TK-luc, hERa (human ERα)	Activation of ERa (human ERα)	melting point	Compound	Fold activation, Receptor — (second block) ([1]; 3 μM)	Fold activation, Receptor — (second block) ([1]; 10 μM)	Fold activation, Receptor — (second block) ([1]; 30 μM)	Potency of ERR activation with versus without PGC-1a (ERR)
failed to activate or inhibit	0.53 fold	do not activate	–	CCN(CC)c1ccc(C=NNC(=O)c2ccc(O)cc2)cc1 [DY131, 4-Hydroxy-benzoic acid (4-diethylamino-benzylidene)-hydrazide]	1.0 fold	1.1 fold	1.0 fold	more potent activators in the presence of PGC-1a than without
–	1.74 fold	do not activate	–	O=C(NN=Cc1ccccc1)c1ccc(O)cc1 [DY162, 4-Hydroxy-benzoic acid benzylidene-hydrazide]	–	–	–	more potent activators in the presence of PGC-1a than without
–	1.59 fold	do not activate	241.9 °C	Cc1cccc(C=NNC(=O)c2ccc(O)cc2)c1 [DY159, 4-Hydroxy-benzoic acid (3-methyl-benzylidene)-hydrazide]	–	–	–	more potent activators in the presence of PGC-1a than without
